# Data reported in US20250003970A1, “FRET ENZYMATIC SUBSTRATE AND USES THEREOF IN LUNG CANCER” (URTESTE S.A., priority 2021, published 2025).
# “And” between values parts separate entries of the source, which are not always exact repeats. Equal entries are not always repeated. Starred links: 1 amine or outer side, 2 acyl side, 3 side chain; linkers in the order of their positions; H or OH if unused. Non-standard residues stand in square brackets, D forms with d. No end group written: not given here. Benzoyl(5-NH,2-NO2) = O=C(c1cc(N[*:1])ccc1[N+](=O)[O-])[*:2]; 2Abz = Nc1ccccc1C(=O)O
# Columns and labels:
# Format in all cases: biochemical, human
# [1] = system: enzymatic activity specific to lung cancer in urine from a subject suffering from lung cancer; assay: Absorbance measurement of substrate hydrolysis in urine from subjects with lung cancer; conditions: for absorbance (Results of absorbance analysis): 405 nm, 37° C., 60 minutes, pH 8.0, triplicate
# Experimental: (§1) The activity of the novel compounds according to the invention was studied in a group of 20 subjects diagnosed with lung cancer using the representative compound according to the invention. […] The remaining compounds according to the invention are characterized by the analogous mechanism of action. For this purpose, the representative compound according to the invention, ABZ^1-Tyr^2-Ile^3-Phe^4-Arg^5-ANB^6-NH2, was dissolved in dimethyl sulfoxide (at a concentration of 0.5 mg/mL) and then 50 μL of the solution was mixed with 120 μL of a buffer (200 mM Tris-HCl, pH 8.0) and 80 μL of urine from a subject suffering from lung cancer. The measurement was performed on a 96-well plate designed for measuring absorbance and each sample was analysed in triplicate at the temperature of 37° C. The duration of the measurement was 60 minutes. During the measurement, the wavelength characteristic for the chromophore (ANB-NH2) being released was monitored at the wavelength 405 nm (range 380-430 nm).
# [2] = system: urine samples taken from healthy persons; assay: Absorbance measurement of substrate hydrolysis in urine from healthy subjects; conditions: for absorbance (Results of absorbance analysis): healthy person, 405 nm, 37° C., 60 minutes, pH 8.0, triplicate
# [3] = system: urine samples from patients with diagnosed cancers; assay: Selectivity of substrate cleavage in urine from patients with different cancers
# Text: Arabic numerals indicate the numbers of given cancer types. The samples tested for each type of cancer were derived from 20 different patients for each of the tested cancers. The results are mean values for given cancer types.
# as §1
# Furthermore, the dependence of the cleavage selectivity of the substrate, i.e. the compound according to the invention, on the cancer being examined, was studied. […]
substance,measurement,setting,value
"ABZ-Tyr-Ile-Phe-Arg-ANB-NH2 ([2Abz]YIFR-{Benzoyl(5-NH,2-NO2)-NH2}) [chromogenic/fluorogenic FRET peptide substrate, ABZ = 2-aminobenzoic acid, ANB-NH2 = amide of 5-amino-2-nitrobenzoic acid]",cleavage of the substrate,[1]; all samples 1-50 from persons suffering from lung cancer,underwent cleavage
same,efficiency of cleavage of the substrate,[1]; samples 7 and 16 compared with samples 50 or 42 (FIG. 2),less efficiently
same,absorbance (Results of absorbance analysis),"[1]; urine sample 7, lung cancer",0.0015 and 0.0017 and 0.002
same,absorbance (Results of absorbance analysis),"[1]; urine sample 8, lung cancer",0.0032 and 0.0031 and 0.0036
same,absorbance (Results of absorbance analysis),"[1]; urine sample 9, lung cancer",0.026 and 0.0294 and 0.025
same,absorbance (Results of absorbance analysis),"[1]; urine sample 10, lung cancer",0.0403 and 0.0738 and 0.056
same,absorbance (Results of absorbance analysis),"[1]; urine sample 11, lung cancer",0.0195 and 0.019 and 0.0188
same,absorbance (Results of absorbance analysis),"[1]; urine sample 12, lung cancer",0.0056 and 0.0068 and 0.0062
same,absorbance (Results of absorbance analysis),"[1]; urine sample 13, lung cancer",0.063 and 0.0633 and 0.0632
same,absorbance (Results of absorbance analysis),"[1]; urine sample 14, lung cancer",0.018 and 0.0176 and 0.0179
same,absorbance (Results of absorbance analysis),"[1]; urine sample 15, lung cancer",0.015 and 0.0139 and 0.0146
same,absorbance (Results of absorbance analysis),"[1]; urine sample 16, lung cancer",0.0015 and 0.0016 and 0.002
same,absorbance (Results of absorbance analysis),"[1]; urine sample 17, lung cancer",0.0096 and 0.0095 and 0.0102
same,absorbance (Results of absorbance analysis),"[1]; urine sample 18, lung cancer",0.0104 and 0.019 and 0.0156
same,absorbance (Results of absorbance analysis),"[1]; urine sample 20, lung cancer",0.0443 and 0.0299 and 0.036
same,absorbance (Results of absorbance analysis),"[1]; urine sample 21, lung cancer",0.0215 and 0.022 and 0.0256
same,absorbance (Results of absorbance analysis),"[1]; urine sample 22, lung cancer",0.0301 and 0.0349 and 0.035
same,absorbance (Results of absorbance analysis),"[1]; urine sample 23, lung cancer",0.0732 and 0.0483 and 0.065
same,absorbance (Results of absorbance analysis),"[1]; urine sample 25, lung cancer",0.0703 and 0.0549 and 0.062
same,absorbance (Results of absorbance analysis),"[1]; urine sample 26, lung cancer",0.149 and 0.1049 and 0.103
same,absorbance (Results of absorbance analysis),"[1]; urine sample 27, lung cancer",0.1005 and 0.1078 and 0.106
same,absorbance (Results of absorbance analysis),"[1]; urine sample 28, lung cancer",0.0613 and 0.0765 and 0.072
same,absorbance (Results of absorbance analysis),"[1]; urine sample 29, lung cancer",0.0203 and 0.0218 and 0.025
same,absorbance (Results of absorbance analysis),"[1]; urine sample 30, lung cancer",0.1595 and 0.1543 and 0.156
same,absorbance (Results of absorbance analysis),"[1]; urine sample 31, lung cancer",0.0346 and 0.0306 and 0.036
same,absorbance (Results of absorbance analysis),"[1]; urine sample 32, lung cancer",0.01457 and 0.0186 and 0.0159
same,absorbance (Results of absorbance analysis),"[1]; urine sample 33, lung cancer",0.07 and 0.0625 and 0.0687
same,absorbance (Results of absorbance analysis),"[1]; urine sample 34, lung cancer",0.0421 and 0.0243 and 0.036
same,absorbance (Results of absorbance analysis),"[1]; urine sample 35, lung cancer",0.0402 and 0.0714 and 0.0632
same,absorbance (Results of absorbance analysis),"[1]; urine sample 36, lung cancer",0.0046 and 0.0057 and 0.00498
same,absorbance (Results of absorbance analysis),"[1]; urine sample 37, lung cancer",0.058 and 0.065 and 0.062
same,absorbance (Results of absorbance analysis),"[1]; urine sample 38, lung cancer",0.0194 and 0.01741 and 0.0185
same,absorbance (Results of absorbance analysis),"[1]; urine sample 40, lung cancer",0.0572 and 0.03085 and 0.0469
same,absorbance (Results of absorbance analysis),"[1]; urine sample 41, lung cancer",0.0138 and 0.0163 and 0.0156
same,absorbance (Results of absorbance analysis),"[1]; urine sample 42, lung cancer",0.1543 and 0.1976 and 0.175
same,absorbance (Results of absorbance analysis),"[1]; urine sample 43, lung cancer",0.0366
same,absorbance (Results of absorbance analysis),[2]; urine sample 1Z,0.00000
same,absorbance (Results of absorbance analysis),[2]; urine sample 2Z,0.00000
same,absorbance (Results of absorbance analysis),[2]; urine sample 3Z,0.00000
same,absorbance (Results of absorbance analysis),[2]; urine sample 4Z,0.00000
same,absorbance (Results of absorbance analysis),[2]; urine sample 5Z,0.00000
same,absorbance (Results of absorbance analysis),[2]; urine sample 6Z,0.00000
same,absorbance (Results of absorbance analysis),[2]; urine sample 7Z,0.00000
same,absorbance (Results of absorbance analysis),[2]; urine sample 8Z,0.00000
same,absorbance (Results of absorbance analysis),[2]; urine sample 9Z,0.00000
same,absorbance (Results of absorbance analysis),[2]; urine sample 10Z,0.00000
same,absorbance (Results of absorbance analysis),[2]; urine sample 11Z,0.00000
same,absorbance (Results of absorbance analysis),[2]; urine sample 12Z,0.00000
same,absorbance (Results of absorbance analysis),[2]; urine sample 13Z,0.00000
same,absorbance (Results of absorbance analysis),[2]; urine sample 14Z,0.00000
same,absorbance (Results of absorbance analysis),[2]; urine sample 15Z,0.00000
same,absorbance (Results of absorbance analysis),[2]; urine sample 16Z,0.00000
same,absorbance (Results of absorbance analysis),[2]; urine sample 17Z,0.00000
same,absorbance (Results of absorbance analysis),[2]; urine sample 18Z,0.00000
same,absorbance (Results of absorbance analysis),[2]; urine sample 19Z,0.00000
same,absorbance (Results of absorbance analysis),[2]; urine sample 20Z,0.00000
same,absorbance (Results of absorbance analysis),[2]; urine sample 21Z,0.00000
same,absorbance (Results of absorbance analysis),[2]; urine sample 22Z,0.00000
same,absorbance (Results of absorbance analysis),[2]; urine sample 23Z,0.00000
same,absorbance (Results of absorbance analysis),[2]; urine sample 24Z,0.00000
same,absorbance (Results of absorbance analysis),[2]; urine sample 25Z,0.00000
same,increase in absorbance / hydrolysis,[2]; urine samples from healthy persons 1Z to 25Z,does not lead to an increase in absorbance
same,selectivity of hydrolysis of the substrate,"[3]; lung cancer urine (sample 1) vs other neoplastic disease (samples 2-9), FIG. 3, mean values",selectivity of substrate cleavage in the case of urine from patients with lung cancer
same,cleavage / increase in absorbance,"[3]; samples from patients with testicular, intestine, kidney, prostate, pancreatic, bile duct, lung, ovarian, and rectum cancer",is not subject to cleavage
